Source: ChEMBL document CHEMBL3991601, “The target landscape of clinical kinase drugs” (Science, 2017)
Structures can show the parent of a compound that is named as a salt. The source made the active and inactive calls. Rule as the data show it, for most assays here: actives have a measured Kd and inactives only a lower limit.

Key:
[1] = target: Serine/threonine-protein kinase SIK2 (Homo sapiens, UniProt Q9H0K1)
[2] = target: Focal adhesion kinase 1 (Homo sapiens, UniProt Q05397)
[3] = target: T1, Mitogen-activated protein kinase 15 (Homo sapiens, UniProt Q8TD08)
T1 sequence (Q8TD08 whole entry): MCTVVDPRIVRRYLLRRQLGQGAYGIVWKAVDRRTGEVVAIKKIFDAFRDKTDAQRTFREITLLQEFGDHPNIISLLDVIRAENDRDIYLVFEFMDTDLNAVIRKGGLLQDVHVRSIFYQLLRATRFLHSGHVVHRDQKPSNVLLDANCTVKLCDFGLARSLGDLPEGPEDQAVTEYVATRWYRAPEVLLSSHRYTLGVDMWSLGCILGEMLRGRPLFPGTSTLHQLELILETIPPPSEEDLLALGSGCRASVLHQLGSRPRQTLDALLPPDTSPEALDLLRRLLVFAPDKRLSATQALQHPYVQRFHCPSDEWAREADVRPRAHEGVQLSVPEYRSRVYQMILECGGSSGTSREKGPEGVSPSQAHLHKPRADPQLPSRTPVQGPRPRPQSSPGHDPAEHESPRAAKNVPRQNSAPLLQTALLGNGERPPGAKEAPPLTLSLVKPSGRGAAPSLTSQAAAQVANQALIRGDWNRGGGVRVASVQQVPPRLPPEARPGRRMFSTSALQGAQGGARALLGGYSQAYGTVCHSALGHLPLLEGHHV

[4] = target: T2, Dual specificity mitogen-activated protein kinase kinase 5 (Homo sapiens, UniProt Q13163)
T2 sequence (Q13163 whole entry): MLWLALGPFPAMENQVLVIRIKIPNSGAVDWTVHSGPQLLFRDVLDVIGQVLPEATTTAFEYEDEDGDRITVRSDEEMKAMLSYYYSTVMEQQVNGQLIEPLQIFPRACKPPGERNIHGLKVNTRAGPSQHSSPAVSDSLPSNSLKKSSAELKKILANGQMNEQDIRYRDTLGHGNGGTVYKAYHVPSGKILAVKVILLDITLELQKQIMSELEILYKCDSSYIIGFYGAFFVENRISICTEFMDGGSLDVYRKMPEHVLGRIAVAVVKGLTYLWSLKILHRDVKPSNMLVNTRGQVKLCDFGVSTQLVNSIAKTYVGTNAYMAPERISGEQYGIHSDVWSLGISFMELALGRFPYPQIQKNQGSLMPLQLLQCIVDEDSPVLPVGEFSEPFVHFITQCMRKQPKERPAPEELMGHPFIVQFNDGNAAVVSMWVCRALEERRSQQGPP

[5] = target: Serine/threonine-protein kinase/endoribonuclease IRE1 (Homo sapiens, UniProt O75460)
Serine/threonine-protein kinase/endoribonuclease IRE1, sequence (O75460 whole entry): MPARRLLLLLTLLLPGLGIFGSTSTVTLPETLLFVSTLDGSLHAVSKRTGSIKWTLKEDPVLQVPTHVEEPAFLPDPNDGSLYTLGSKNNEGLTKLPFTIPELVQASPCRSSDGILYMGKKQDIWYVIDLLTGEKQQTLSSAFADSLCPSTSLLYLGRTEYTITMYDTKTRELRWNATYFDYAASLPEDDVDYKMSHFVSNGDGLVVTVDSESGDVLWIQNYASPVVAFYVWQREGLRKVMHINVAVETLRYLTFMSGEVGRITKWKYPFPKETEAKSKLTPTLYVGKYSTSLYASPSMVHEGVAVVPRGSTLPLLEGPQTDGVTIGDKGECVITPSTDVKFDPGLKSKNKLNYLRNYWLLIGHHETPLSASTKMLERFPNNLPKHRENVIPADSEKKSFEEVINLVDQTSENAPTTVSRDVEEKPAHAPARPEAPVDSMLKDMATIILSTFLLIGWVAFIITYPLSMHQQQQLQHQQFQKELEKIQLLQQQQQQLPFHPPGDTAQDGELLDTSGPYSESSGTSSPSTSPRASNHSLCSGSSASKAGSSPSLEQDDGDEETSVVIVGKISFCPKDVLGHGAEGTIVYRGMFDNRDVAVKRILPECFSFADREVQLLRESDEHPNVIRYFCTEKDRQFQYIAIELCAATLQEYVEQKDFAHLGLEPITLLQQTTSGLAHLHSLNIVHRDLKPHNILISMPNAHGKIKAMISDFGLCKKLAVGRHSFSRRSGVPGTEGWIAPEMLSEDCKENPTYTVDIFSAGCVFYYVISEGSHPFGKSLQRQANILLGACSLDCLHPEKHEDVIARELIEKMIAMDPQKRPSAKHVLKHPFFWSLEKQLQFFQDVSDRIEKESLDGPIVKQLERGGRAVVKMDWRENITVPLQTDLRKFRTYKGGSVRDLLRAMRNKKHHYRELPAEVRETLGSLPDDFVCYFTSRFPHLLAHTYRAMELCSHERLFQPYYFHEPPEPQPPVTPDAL

[6] = target: Serine/threonine-protein kinase/endoribonuclease IRE2 (Homo sapiens, UniProt Q76MJ5)
Serine/threonine-protein kinase/endoribonuclease IRE2, sequence (Q76MJ5 whole entry): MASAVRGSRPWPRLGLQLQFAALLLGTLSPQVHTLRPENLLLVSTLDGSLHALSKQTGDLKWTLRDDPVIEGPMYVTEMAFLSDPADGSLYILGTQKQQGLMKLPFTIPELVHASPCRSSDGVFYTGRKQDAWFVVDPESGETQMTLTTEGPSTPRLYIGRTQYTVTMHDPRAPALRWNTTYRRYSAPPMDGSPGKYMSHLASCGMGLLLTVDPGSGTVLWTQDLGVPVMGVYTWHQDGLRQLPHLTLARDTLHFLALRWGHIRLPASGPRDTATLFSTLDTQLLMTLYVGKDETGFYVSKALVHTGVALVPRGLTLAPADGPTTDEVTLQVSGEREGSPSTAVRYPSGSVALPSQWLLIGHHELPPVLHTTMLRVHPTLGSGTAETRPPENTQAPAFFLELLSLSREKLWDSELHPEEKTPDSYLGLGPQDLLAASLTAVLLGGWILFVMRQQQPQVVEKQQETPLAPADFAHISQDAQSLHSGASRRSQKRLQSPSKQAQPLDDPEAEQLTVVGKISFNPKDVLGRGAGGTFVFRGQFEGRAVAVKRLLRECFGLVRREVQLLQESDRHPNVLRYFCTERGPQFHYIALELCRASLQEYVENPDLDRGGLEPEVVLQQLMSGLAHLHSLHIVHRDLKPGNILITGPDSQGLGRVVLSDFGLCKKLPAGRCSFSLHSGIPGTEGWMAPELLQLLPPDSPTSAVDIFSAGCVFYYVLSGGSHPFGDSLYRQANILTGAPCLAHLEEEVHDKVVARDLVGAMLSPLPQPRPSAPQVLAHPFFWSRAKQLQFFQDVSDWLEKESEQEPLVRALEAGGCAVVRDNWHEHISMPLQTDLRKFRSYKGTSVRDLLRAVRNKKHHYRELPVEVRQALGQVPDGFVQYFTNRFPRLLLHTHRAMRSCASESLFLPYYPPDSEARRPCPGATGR

[7] = target: Insulin receptor (Homo sapiens, UniProt P06213)
Insulin receptor, sequence (P06213 28-758 limits assumed): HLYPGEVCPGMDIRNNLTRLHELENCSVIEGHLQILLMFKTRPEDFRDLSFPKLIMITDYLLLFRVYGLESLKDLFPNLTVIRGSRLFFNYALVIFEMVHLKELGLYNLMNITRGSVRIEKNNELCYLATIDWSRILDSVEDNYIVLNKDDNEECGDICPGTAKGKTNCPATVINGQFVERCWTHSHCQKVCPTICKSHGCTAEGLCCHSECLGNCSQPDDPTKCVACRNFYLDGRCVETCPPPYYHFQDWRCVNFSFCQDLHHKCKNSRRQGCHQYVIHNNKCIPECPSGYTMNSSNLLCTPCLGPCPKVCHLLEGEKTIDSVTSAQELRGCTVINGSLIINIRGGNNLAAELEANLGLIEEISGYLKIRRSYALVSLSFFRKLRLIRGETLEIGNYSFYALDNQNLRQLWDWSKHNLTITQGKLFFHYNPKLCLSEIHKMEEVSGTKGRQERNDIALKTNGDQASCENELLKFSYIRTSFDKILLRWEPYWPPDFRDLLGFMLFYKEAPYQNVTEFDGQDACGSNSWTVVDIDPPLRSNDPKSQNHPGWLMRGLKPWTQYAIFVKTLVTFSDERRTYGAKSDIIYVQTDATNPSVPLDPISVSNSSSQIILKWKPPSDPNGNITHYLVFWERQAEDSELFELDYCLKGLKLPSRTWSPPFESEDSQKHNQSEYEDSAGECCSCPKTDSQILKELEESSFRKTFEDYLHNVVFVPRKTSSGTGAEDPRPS
Insulin receptor, sequence (P06213 763-1382 limits assumed): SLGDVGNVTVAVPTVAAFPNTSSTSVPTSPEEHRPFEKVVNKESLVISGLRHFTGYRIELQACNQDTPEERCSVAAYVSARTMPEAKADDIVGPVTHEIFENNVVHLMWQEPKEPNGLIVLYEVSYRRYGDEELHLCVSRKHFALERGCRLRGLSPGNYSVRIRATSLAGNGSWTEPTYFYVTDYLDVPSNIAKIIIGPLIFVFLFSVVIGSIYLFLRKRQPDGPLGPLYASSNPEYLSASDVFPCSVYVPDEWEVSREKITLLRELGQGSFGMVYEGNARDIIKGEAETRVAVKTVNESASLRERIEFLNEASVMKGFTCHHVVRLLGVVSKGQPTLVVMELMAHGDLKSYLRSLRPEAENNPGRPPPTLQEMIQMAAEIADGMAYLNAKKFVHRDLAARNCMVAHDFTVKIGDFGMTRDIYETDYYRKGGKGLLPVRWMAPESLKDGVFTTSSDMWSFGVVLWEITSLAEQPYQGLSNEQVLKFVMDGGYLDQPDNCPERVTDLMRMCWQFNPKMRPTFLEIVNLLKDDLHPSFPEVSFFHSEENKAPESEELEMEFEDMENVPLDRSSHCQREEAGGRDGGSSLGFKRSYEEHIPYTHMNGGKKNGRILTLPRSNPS

[8] = target: T3, Glycogen phosphorylase, brain form (Homo sapiens, UniProt P11216)
T3 sequence (P11216 whole entry): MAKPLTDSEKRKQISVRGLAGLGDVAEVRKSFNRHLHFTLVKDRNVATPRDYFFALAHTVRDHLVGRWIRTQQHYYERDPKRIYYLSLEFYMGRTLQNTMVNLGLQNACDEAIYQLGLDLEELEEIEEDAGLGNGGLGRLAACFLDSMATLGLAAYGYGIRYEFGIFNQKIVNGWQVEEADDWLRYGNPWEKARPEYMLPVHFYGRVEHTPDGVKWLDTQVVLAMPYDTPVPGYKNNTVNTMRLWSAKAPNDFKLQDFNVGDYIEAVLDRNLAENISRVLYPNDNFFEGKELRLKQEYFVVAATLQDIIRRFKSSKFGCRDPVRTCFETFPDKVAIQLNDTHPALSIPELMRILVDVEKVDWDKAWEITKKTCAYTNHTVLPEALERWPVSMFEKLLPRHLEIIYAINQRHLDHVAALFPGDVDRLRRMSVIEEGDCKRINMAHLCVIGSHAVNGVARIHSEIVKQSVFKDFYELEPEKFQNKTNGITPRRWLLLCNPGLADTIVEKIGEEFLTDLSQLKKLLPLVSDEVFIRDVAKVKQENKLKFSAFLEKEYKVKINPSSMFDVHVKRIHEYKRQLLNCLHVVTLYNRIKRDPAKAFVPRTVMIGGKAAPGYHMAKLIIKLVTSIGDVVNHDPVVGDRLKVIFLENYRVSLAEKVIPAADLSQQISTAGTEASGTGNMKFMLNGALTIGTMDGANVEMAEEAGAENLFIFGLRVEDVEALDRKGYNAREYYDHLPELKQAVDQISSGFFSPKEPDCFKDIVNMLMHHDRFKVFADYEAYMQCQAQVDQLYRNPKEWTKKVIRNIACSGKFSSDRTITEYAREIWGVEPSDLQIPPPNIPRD

[9] = target: Serine/threonine-protein kinase SIK3 (Homo sapiens, UniProt Q9Y2K2)
[10] = target: T4, MAP/microtubule affinity-regulating kinase 4 (Homo sapiens, UniProt Q96L34)
T4 sequence (Q96L34 whole entry): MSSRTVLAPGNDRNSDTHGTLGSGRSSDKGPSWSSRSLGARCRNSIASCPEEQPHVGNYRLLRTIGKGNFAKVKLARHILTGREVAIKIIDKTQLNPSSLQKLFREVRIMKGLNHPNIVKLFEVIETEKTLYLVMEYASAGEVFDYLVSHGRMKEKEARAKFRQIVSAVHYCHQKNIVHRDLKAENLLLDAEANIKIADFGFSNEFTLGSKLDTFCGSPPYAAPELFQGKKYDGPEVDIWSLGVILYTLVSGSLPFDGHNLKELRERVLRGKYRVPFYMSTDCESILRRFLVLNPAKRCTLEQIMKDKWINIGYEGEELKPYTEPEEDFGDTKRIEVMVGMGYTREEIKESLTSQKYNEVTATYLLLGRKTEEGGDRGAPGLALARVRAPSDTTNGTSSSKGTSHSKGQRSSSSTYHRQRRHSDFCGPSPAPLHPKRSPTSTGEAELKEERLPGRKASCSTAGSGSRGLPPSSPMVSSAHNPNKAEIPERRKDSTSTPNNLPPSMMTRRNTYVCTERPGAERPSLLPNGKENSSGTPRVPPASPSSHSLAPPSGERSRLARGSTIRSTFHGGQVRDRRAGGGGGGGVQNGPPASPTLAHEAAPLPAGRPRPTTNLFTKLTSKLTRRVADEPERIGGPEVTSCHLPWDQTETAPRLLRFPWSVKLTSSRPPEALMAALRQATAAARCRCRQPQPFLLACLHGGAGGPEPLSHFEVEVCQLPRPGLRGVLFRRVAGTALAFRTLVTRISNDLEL

[11] = target: Tyrosine-protein kinase CSK (Homo sapiens, UniProt P41240)
Also: in the data inactive means no Kd found up to 30 µM.

Serine/threonine-protein kinase SIK2, sequence (Q9H0K1 whole entry): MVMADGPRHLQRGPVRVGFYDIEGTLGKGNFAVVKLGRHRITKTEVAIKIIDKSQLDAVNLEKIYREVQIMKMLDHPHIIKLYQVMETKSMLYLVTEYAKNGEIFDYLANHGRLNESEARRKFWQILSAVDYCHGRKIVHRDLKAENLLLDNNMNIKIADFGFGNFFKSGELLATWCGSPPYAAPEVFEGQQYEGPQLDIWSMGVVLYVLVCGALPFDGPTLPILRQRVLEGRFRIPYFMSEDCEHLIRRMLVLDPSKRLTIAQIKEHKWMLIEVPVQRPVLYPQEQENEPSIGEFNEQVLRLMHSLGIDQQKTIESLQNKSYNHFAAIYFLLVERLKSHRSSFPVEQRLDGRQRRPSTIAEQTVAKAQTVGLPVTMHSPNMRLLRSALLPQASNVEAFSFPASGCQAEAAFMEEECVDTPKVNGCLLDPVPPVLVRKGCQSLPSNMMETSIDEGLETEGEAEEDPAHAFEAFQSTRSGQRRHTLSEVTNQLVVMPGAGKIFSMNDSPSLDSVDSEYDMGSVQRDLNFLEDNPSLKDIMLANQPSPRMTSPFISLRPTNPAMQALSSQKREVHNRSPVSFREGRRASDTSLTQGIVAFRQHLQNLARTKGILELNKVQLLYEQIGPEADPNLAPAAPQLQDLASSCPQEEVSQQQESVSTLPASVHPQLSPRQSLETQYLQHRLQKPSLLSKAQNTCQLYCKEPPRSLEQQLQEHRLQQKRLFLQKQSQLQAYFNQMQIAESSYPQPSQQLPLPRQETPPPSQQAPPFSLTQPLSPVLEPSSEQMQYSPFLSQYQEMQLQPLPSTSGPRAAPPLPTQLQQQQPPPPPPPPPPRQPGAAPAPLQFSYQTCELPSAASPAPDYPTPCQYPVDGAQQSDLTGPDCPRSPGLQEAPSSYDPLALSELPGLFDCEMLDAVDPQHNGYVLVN

Row | Kd [1] | Kd [2] | Kd [4] | Kd [5] | Kd [6] | Kd [7] | Kd [8] | Kd [9] | Kd [10] | Kd [11] | SMILES | Kd [3]
1 | 0.128 µM (active) | > 30 µM (inactive) | 0.656 µM (active) | > 30 µM (inactive) | > 30 µM (inactive) | > 30 µM (inactive) | > 30 µM (inactive) | 13.6 µM (active) | > 30 µM (inactive) | > 30 µM (inactive) | CCS(=O)(=O)N1CCN(c2ccc(Nc3ncc(C(N)=O)c(NC4CC4)n3)cc2)CC1 [Cerdulatinib Hydrochloride] | > 30 µM (inactive)
2 | > 30 µM (inactive) | > 30 µM (inactive) | > 30 µM (inactive) | > 30 µM (inactive) | > 30 µM (inactive) | > 30 µM (inactive) | > 30 µM (inactive) | > 30 µM (inactive) | > 30 µM (inactive) | > 30 µM (inactive) | COc1ccc(S(=O)(=O)N(C(C)=O)c2ccccc2/C=C/c2cc[n+]([O-])cc2)cc1 [HMN-214] | > 30 µM (inactive)
3 | > 30 µM (inactive) | > 30 µM (inactive) | > 30 µM (inactive) | > 30 µM (inactive) | > 30 µM (inactive) | > 30 µM (inactive) | > 30 µM (inactive) | > 30 µM (inactive) | > 30 µM (inactive) | > 30 µM (inactive) | CNC(=O)c1cccc2cc(Oc3ccnc4cc(OCC5(N)CC5)c(OC)cc34)ccc12 [LUCITANIB] | > 30 µM (inactive)
4 | 0.11 µM (active) | > 30 µM (inactive) | > 30 µM (inactive) | > 30 µM (inactive) | > 30 µM (inactive) | > 30 µM (inactive) | > 30 µM (inactive) | 0.266 µM (active) | > 30 µM (inactive) | > 30 µM (inactive) | CNC(=O)c1nn(C)c2c1C(C)(C)Cc1cnc(Nc3ccc(N4CCN(C)CC4)cc3)nc1-2 [MILCICLIB] | > 30 µM (inactive)
5 | > 30 µM (inactive) | > 30 µM (inactive) | > 30 µM (inactive) | > 30 µM (inactive) | > 30 µM (inactive) | > 30 µM (inactive) | > 30 µM (inactive) | > 30 µM (inactive) | > 30 µM (inactive) | > 30 µM (inactive) | NC1(c2ccc(-c3nc4ccn5c(=O)[nH]nc5c4cc3-c3ccccc3)cc2)CCC1 [MK-2206] | > 30 µM (inactive)
6 | > 30 µM (inactive) | > 30 µM (inactive) | > 30 µM (inactive) | > 30 µM (inactive) | > 30 µM (inactive) | > 30 µM (inactive) | > 30 µM (inactive) | > 30 µM (inactive) | > 30 µM (inactive) | > 30 µM (inactive) | Cn1cc(-c2cnc3ccc4ccc(CS(=O)(=O)NCc5ccccn5)cc4c(=O)c3c2)cn1 [MK-8033] | > 30 µM (inactive)
7 | > 30 µM (inactive) | > 30 µM (inactive) | > 30 µM (inactive) | > 30 µM (inactive) | > 30 µM (inactive) | > 30 µM (inactive) | > 30 µM (inactive) | > 30 µM (inactive) | > 30 µM (inactive) | > 30 µM (inactive) | FC(F)(F)c1ccc(/C=C/c2nc(COc3ccc(CCCCn4ccnn4)cc3)co2)cc1 [MUBRITINIB] | > 30 µM (inactive)
8 | > 30 µM (inactive) | > 30 µM (inactive) | > 30 µM (inactive) | > 30 µM (inactive) | > 30 µM (inactive) | > 30 µM (inactive) | > 30 µM (inactive) | > 30 µM (inactive) | > 30 µM (inactive) | > 30 µM (inactive) | COc1ncc(-c2ccc3nccc(-c4ccnnc4)c3c2)cc1NS(=O)(=O)c1ccc(F)cc1F [OMIPALISIB] | > 30 µM (inactive)
9 | 1.27 µM (active) | > 30 µM (inactive) | > 30 µM (inactive) | > 30 µM (inactive) | > 30 µM (inactive) | > 30 µM (inactive) | > 30 µM (inactive) | > 30 µM (inactive) | 0.029 µM (active) | > 30 µM (inactive) | Cc1nc(Nc2n[nH]c3c2CN(C(=O)N[C@H](CN(C)C)c2ccccc2)C3(C)C)c2sccc2n1 [PF-03758309] | > 30 µM (inactive)
10 | > 30 µM (inactive) | > 30 µM (inactive) | > 30 µM (inactive) | > 30 µM (inactive) | > 30 µM (inactive) | > 30 µM (inactive) | > 30 µM (inactive) | > 30 µM (inactive) | > 30 µM (inactive) | > 30 µM (inactive) | Cc1cnc(NC(=O)Nc2cc(Br)c(C)cc2OC[C@@H]2CNCCO2)cn1 [RABUSERTIB] | > 30 µM (inactive)

Row | SMILES | Kd [1] | Kd [2] | Kd [4] | Kd [5] | Kd [6] | Kd [7] | Kd [8] | Kd [9] | Kd [10] | Kd [11] | Kd [3]
11 | CC(C)(C)c1nc(-c2cccc(NS(=O)(=O)c3c(F)cccc3F)c2F)c(-c2ccnc(N)n2)s1 [DABRAFENIB] | 0.649 µM (active) | > 30 µM (inactive) | 2.29 µM (active) | 1.45 µM (active) | 0.116 µM | > 30 µM (inactive) | > 30 µM (inactive) | 2 µM (active) | > 30 µM (inactive) | 0.851 µM (active) | > 30 µM (inactive)
12 | O=C(Nc1nc2cccc(-c3ccc(CN4CCS(=O)(=O)CC4)cc3)n2n1)C1CC1 [FILGOTINIB] | > 30 µM (inactive) | > 30 µM (inactive) | > 30 µM (inactive) | > 30 µM (inactive) | > 30 µM (inactive) | > 30 µM (inactive) | > 30 µM (inactive) | > 30 µM (inactive) | > 30 µM (inactive) | > 30 µM (inactive) | > 30 µM (inactive)
